This passage reports EC50 and Emax results from patent publication US20240208992A1, “MACROCYCLES AS CFTR MODULATORS” (Idorsia Pharmaceuticals Ltd, priority 2021, published 2024).

For this test, the target named is human F508del-CFTR (Homo sapiens, UniProt P13569, DEL508-508). The experiment in a line: F508del-CFTR cell surface expression (corrector activity), DiscoveRx ß-galactosidase complementation chemiluminescence assay in recombinant U2OS cell line.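 As to all read-outs here: U2OS cells co-expressing ProLink-tagged F508del-CFTR and a membrane-anchored enzyme acceptor, where more surface CFTR restores β-galactosidase activity measured by chemiluminescence.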 The following applies: U2OS cell line, 16h compound incubation; for EC50: EC50, F508del-CFTR cell surface expression, geomean values; for Emax: U2OS, in relation to the Emax of the corrector lumacaftor (=100%), arithmetic mean values.
Sequence of human F508del-CFTR (P13569 with tags, fused parts or gaps DEL508-508): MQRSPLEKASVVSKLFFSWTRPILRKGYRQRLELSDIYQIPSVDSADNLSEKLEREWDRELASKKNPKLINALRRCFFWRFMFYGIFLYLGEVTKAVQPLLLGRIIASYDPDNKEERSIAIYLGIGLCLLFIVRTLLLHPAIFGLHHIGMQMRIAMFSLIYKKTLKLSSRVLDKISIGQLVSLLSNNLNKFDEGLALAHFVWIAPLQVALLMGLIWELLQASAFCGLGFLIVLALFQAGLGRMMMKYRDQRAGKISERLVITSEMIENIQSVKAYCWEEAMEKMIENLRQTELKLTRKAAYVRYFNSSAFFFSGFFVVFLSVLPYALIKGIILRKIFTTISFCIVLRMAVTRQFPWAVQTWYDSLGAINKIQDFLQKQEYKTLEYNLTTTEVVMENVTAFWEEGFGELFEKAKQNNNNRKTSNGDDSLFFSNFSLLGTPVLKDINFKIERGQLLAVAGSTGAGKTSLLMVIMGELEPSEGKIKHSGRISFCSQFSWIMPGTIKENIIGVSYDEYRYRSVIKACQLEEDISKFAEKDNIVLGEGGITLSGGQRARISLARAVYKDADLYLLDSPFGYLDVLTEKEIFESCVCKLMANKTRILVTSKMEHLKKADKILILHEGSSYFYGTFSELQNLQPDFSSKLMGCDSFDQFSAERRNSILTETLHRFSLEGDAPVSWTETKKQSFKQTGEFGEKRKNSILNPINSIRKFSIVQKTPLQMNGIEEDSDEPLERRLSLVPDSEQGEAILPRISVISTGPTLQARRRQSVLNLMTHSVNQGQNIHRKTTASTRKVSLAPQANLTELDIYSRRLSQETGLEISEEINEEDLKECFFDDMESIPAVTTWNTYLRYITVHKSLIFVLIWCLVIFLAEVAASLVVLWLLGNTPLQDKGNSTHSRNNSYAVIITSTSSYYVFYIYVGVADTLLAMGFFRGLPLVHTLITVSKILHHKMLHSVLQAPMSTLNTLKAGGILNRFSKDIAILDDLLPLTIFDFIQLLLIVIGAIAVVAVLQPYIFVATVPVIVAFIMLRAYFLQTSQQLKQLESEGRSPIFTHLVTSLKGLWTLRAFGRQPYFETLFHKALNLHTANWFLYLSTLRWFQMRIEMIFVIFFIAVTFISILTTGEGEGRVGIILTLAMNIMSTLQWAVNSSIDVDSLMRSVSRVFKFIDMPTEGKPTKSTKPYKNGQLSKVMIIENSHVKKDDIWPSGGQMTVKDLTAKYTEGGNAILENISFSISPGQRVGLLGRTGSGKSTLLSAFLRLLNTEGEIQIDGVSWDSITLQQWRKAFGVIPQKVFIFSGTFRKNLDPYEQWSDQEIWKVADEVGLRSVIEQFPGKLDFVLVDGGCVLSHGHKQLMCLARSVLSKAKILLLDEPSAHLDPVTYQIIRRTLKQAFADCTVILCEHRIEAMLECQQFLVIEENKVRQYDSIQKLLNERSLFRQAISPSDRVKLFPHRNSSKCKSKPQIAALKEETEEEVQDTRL

SMILES strings stand for the structures.

As a reminder, the EC50 is the concentration at which the effect is half-maximal. The Emax is the size of the effect at its maximum, as opposed to the concentration needed. In the case of `COc1cc(CCNC(=O)[C@@H]2CC(=O)N(C)[C@@H](CC(C)C)C(=O)N3CCOC[C@@H]3C(=O)N[C@H](Cc3ccccc3)COc3ccc4ccccc4c3C(=O)N2)cc(OC)c1` [Example 325, (4aR,7R,18S,22S)-7-benzyl-N-(3,5-dimethoxyphenethyl)-22-isobutyl-21-methyl-5,16,20,23-tetraoxo-1,2,4,4a,5,6,7,8,16,17,18,19,20,21,22,23-hexadecahydronaphtho[1,2-p][1,4]oxazino[3,4-f][1]oxa[4,7,10,14]tetraazacycloheptadecine-18-carboxamide], the concentration giving a half-maximal response (EC50) worked out at 187 nM and the Emax is 237%.

For `CC(C)C[C@H]1C(=O)N2CCOC[C@@H]2C(=O)N[C@H](Cc2ccccc2)COc2ccc3ccccc3c2C(=O)N[C@H](C(=O)NCCc2ccc3c(c2)OCO3)CC(=O)N1C` [Example 326, (4aR,7R,18S,22S)-N-(2-(benzo[d][1,3]dioxol-5-yl)ethyl)-7-benzyl-22-isobutyl-21-methyl-5,16,20,23-tetraoxo-1,2,4,4a,5,6,7,8,16,17,18,19,20,21,22,23-hexadecahydronaphtho[1,2-p][1,4]oxazino[3,4-f][1]oxa[4,7,10,14]tetraazacycloheptadecine-18-carboxamide], the EC50 is 276 nM and the Emax was found to be 273%.

Take `CC(C)C[C@H]1C(=O)N2CCOC[C@@H]2C(=O)N[C@H](Cc2ccccc2)COc2ccc3ccccc3c2C(=O)N[C@H](C(=O)NCCc2nc3ccccc3o2)CC(=O)N1C` [Example 327, (4aR,7R,18S,22S)-N-(2-(benzo[d]oxazol-2-yl)ethyl)-7-benzyl-22-isobutyl-21-methyl-5,16,20,23-tetraoxo-1,2,4,4a,5,6,7,8,16,17,18,19,20,21,22,23-hexadecahydronaphtho[1,2-p][1,4]oxazino[3,4-f][1]oxa[4,7,10,14]tetraazacycloheptadecine-18-carboxamide]: the EC50 was determined as 461 nM and the Emax amounted to 225%.

As for `COc1cc(CCNC(=O)[C@@H]2CC(=O)N(C)[C@@H](CC(C)C)C(=O)N3CCCC[C@@H]3C(=O)N[C@H](Cc3ccccc3)COc3ccc4ncn(C)c4c3C(=O)N2)cc(OC)c1` [Example 328, (8S,12S,18aR,21R)-21-benzyl-N-(3,5-dimethoxyphenethyl)-12-isobutyl-5,11-dimethyl-6,10,13,19-tetraoxo-6,7,8,9,10,11,12,13,16,17,18,18a,19,20,21,22-hexadecahydro-5H,15H-imidazo[4′,5′:5,6]benzo[1,2-p]pyrido[2,1-f][1]oxa[4,7,10,14]tetraazacycloheptadecine-8-carboxamide], the 50% effective concentration (EC50) is 987 nM and the Emax was 228%.

For `CC(C)C[C@H]1C(=O)N2CCCC[C@@H]2C(=O)N[C@H](Cc2ccccc2)COc2ccc3ncn(C)c3c2C(=O)N[C@H](C(=O)NCCc2ccc3c(c2)OCO3)CC(=O)N1C` [Example 329, (8S,12S,18aR,21R)-N-(2-(benzo[d][1,3]dioxol-5-yl)ethyl)-21-benzyl-12-isobutyl-5,11-dimethyl-6,10,13,19-tetraoxo-6,7,8,9,10,11,12,13,16,17,18,18a,19,20,21,22-hexadecahydro-5H,15H-imidazo[4′,5′:5,6]benzo[1,2-p]pyrido[2,1-f][1]oxa[4,7,10,14]tetraazacycloheptadecine-8-carboxamide], the EC50 came to 796 nM and the Emax is 198%.

Consider `CC(C)C[C@H]1C(=O)N(CCC2CC3CCC2O3)CC(=O)N[C@H](Cc2ccccc2)COc2ccc3ccccc3c2C(=O)N[C@H](C(=O)NCCc2ccc3c(c2)OCO3)CC(=O)N1C` (stereo partly drawn) [Example 330, (3S,7S,13R)-9-(2-(7-oxabicyclo[2.2.1]heptan-2-yl)ethyl)-N-(2-(benzo[d][1,3]dioxol-5-yl)ethyl)-13-benzyl-7-isobutyl-6-methyl-1,5,8,11-tetraoxo-1,2,3,4,5,6,7,8,9,10,11,12,13,14-tetradecahydronaphtho[1,2-p][1]oxa[4,7,10,14]tetraazacycloheptadecine-3-carboxamide], for which the EC50 is 418 nM and the Emax was 138%.

Turning to `CC(C)C[C@H]1C(=O)N(CCC2CCC3(CCC3)O2)CC(=O)N[C@H](Cc2ccccc2)COc2ccc3ccccc3c2C(=O)N[C@H](C(=O)NCCc2ccc3c(c2)OCO3)CC(=O)N1C` (stereo partly drawn) [Example 331, (3S,7S,13R)-9-(2-(5-oxaspiro[3.4]octan-6-yl)ethyl)-N-(2-(benzo[d][1,3]dioxol-5-yl)ethyl)-13-benzyl-7-isobutyl-6-methyl-1,5,8,11-tetraoxo-1,2,3,4,5,6,7,8,9,10,11,12,13,14-tetradecahydronaphtho[1,2-p][1]oxa[4,7,10,14]tetraazacycloheptadecine-3-carboxamide], the EC50 amounted to 121 nM and the maximal effect (Emax) was determined as 240%.

As to `CC(C)C[C@H]1C(=O)N(CCC2CCCO2)CC(=O)N[C@H](Cc2ccccc2)COc2ccc3ccccc3c2C(=O)N[C@H](C(=O)NCCc2ccc3c(c2)OCO3)CC(=O)N1C` (stereo partly drawn) [Example 332, (3S,7S,13R)-N-(2-(benzo[d][1,3]dioxol-5-yl)ethyl)-13-benzyl-7-isobutyl-6-methyl-1,5,8,11-tetraoxo-9-(2-(tetrahydrofuran-2-yl)ethyl)-1,2,3,4,5,6,7,8,9,10,11,12,13,14-tetradecahydronaphtho[1,2-p][1]oxa[4,7,10,14]tetraazacycloheptadecine-3-carboxamide], the EC50 came to 309 nM and the Emax was determined as 183%.

`CC(C)C[C@H]1C(=O)N(CCC2CCCOC2)CC(=O)N[C@H](Cc2ccccc2)COc2ccc3ccccc3c2C(=O)N[C@H](C(=O)NCCc2ccc3c(c2)OCO3)CC(=O)N1C` (stereo partly drawn) [Example 333, (3S,7S,13R)-N-(2-(benzo[d][1,3]dioxol-5-yl)ethyl)-13-benzyl-7-isobutyl-6-methyl-1,5,8,11-tetraoxo-9-(2-(tetrahydro-2H-pyran-3-yl)ethyl)-1,2,3,4,5,6,7,8,9,10,11,12,13,14-tetradecahydronaphtho[1,2-p][1]oxa[4,7,10,14]tetraazacycloheptadecine-3-carboxamide]: the concentration giving a half-maximal response (EC50) was determined as 345 nM and the Emax stood at 182%.

In the case of `CC(C)C[C@H]1C(=O)N(CCC2CCC3(CCOCC3)CO2)CC(=O)N[C@H](Cc2ccccc2)COc2ccc3ccccc3c2C(=O)N[C@H](C(=O)NCCc2ccc3c(c2)OCO3)CC(=O)N1C` (stereo partly drawn) [Example 334, (3S,7S,13R)-9-(2-(2,9-dioxaspiro[5.5]undecan-3-yl)ethyl)-N-(2-(benzo[d][1,3]dioxol-5-yl)ethyl)-13-benzyl-7-isobutyl-6-methyl-1,5,8,11-tetraoxo-1,2,3,4,5,6,7,8,9,10,11,12,13,14-tetradecahydronaphtho[1,2-p][1]oxa[4,7,10,14]tetraazacycloheptadecine-3-carboxamide], the EC50 came to 323 nM and the maximum response (Emax) stood at 232%.

In the case of `CC(C)C[C@H]1C(=O)N(CCOC(C)(C)C)CC(=O)N[C@H](Cc2ccccc2)COc2ccc3ccccc3c2C(=O)N[C@H](C(=O)NCCc2ccc3c(c2)OCO3)CC(=O)N1C` [Example 335, (3S,7S,13R)-N-(2-(benzo[d][1,3]dioxol-5-yl)ethyl)-13-benzyl-9-(2-(tert-butoxy)ethyl)-7-isobutyl-6-methyl-1,5,8,11-tetraoxo-1,2,3,4,5,6,7,8,9,10,11,12,13,14-tetradecahydronaphtho[1,2-p][1]oxa[4,7,10,14]tetraazacycloheptadecine-3-carboxamide], the EC50 is 270 nM and the Emax is 262%.

With `COC1CC(CCN2CC(=O)N[C@H](Cc3ccccc3)COc3ccc4ccccc4c3C(=O)N[C@H](C(=O)NCCc3ccc4c(c3)OCO4)CC(=O)N(C)[C@@H](CC(C)C)C2=O)C1` (stereo partly drawn) [Example 336, (3S,7S,13R)-N-(2-(benzo[d][1,3]dioxol-5-yl)ethyl)-13-benzyl-7-isobutyl-9-(2-(3-methoxycyclobutyl)ethyl)-6-methyl-1,5,8,11-tetraoxo-1,2,3,4,5,6,7,8,9,10,11,12,13,14-tetradecahydronaphtho[1,2-p][1]oxa[4,7,10,14]tetraazacycloheptadecine-3-carboxamide], the EC50 came out at 207 nM and the Emax is 212%.

Take `CN1C(=O)C[C@@H](C(=O)NCCc2ccc3c(c2)OCO3)NC(=O)c2c(ccc3ccccc23)OC[C@@H](Cc2ccccc2)NC(=O)CN(C[C@@H]2CCCCO2)C(=O)[C@@H]1CC1CCC1` [Example 337, (3S,7S,13R)-N-(2-(benzo[d][1,3]dioxol-5-yl)ethyl)-13-benzyl-7-(cyclobutylmethyl)-6-methyl-1,5,8,11-tetraoxo-9-(((S)-tetrahydro-2H-pyran-2-yl)methyl)-1,2,3,4,5,6,7,8,9,10,11,12,13,14-tetradecahydronaphtho[1,2-p][1]oxa[4,7,10,14]tetraazacycloheptadecine-3-carboxamide]: the EC50 came out at 452 nM and the maximal response (Emax) was determined as 116%.

With `CN1C(=O)C[C@@H](C(=O)NCCc2ccc3c(c2)OCO3)NC(=O)c2c(ccc3ccccc23)OC[C@@H](Cc2ccccc2)NC(=O)CN(C[C@H]2CCCCO2)C(=O)[C@@H]1CC1CCC1` [Example 338, (3S,7S,13R)-N-(2-(benzo[d][1,3]dioxol-5-yl)ethyl)-13-benzyl-7-(cyclobutylmethyl)-6-methyl-1,5,8,11-tetraoxo-9-(((R)-tetrahydro-2H-pyran-2-yl)methyl)-1,2,3,4,5,6,7,8,9,10,11,12,13,14-tetradecahydronaphtho[1,2-p][1]oxa[4,7,10,14]tetraazacycloheptadecine-3-carboxamide], the EC50 was determined as 292 nM and the Emax came to 173%.

On to `C#CC[C@H]1C(=O)N(CCC2CCCCC2)CC(=O)N[C@H](Cc2ccccc2)COc2ccc3ccccc3c2C(=O)N[C@H](C(=O)NCCc2ccc3c(c2)OCO3)CC(=O)N1C` [Example 339, (3S,7S,13R)-N-(2-(benzo[d][1,3]dioxol-5-yl)ethyl)-13-benzyl-9-(2-cyclohexylethyl)-6-methyl-1,5,8,11-tetraoxo-7-(prop-2-yn-1-yl)-1,2,3,4,5,6,7,8,9,10,11,12,13,14-tetradecahydronaphtho[1,2-p][1]oxa[4,7,10,14]tetraazacycloheptadecine-3-carboxamide], for which the EC50 is 195 nM and the Emax is 237%.
